# Test results from the NIST ThermoML archive (doi:10.1016/j.tca.2018.06.008).
# ± gives the expanded uncertainty stated by the source.
# Conditions: 101.33 kPa, Liquid, Hot disk method
thermal conductivity (298.15 K) [W/m/K],thermal conductivity (303.15 K) [W/m/K],thermal conductivity (308.15 K) [W/m/K],thermal conductivity (313.15 K) [W/m/K],thermal conductivity (318.15 K) [W/m/K],thermal conductivity (323.15 K) [W/m/K],Compound
0.2514 ± 0.0074,0.2535 ± 0.0061,0.2551 ± 0.012,0.2559 ± 0.0076,0.2568 ± 0.011,0.2579 ± 0.011,"OCCO [1,2-ethanediol]"
0.6132 ± 0.011,0.6201 ± 0.012,0.6249 ± 0.012,0.6302 ± 0.013,0.6368 ± 0.011,0.6427 ± 0.014,O [water]
